Measurements taken from US20260306503A1, “(S)-2-HYDROXY-6-((4-(2-(2-HYDROXYETHYL)NICOTINOYL)MORPHOLIN-3-YL)METHOXY)BENZALDEHYD FOR USE IN THE TREATMENT OF SICKLE CELL DISEASE” (Global Blood Therapeutics, Inc., priority 2023, published 2026).

Biological target: T1, hemoglobin (Homo sapiens, UniProt P69905)
T1 construct: whole blood ex vivo
Assay: Hb occupancy calculated from preliminary PK analysis of whole blood samples
Type: in vivo
Details: Patient A, 300 mg QD 14 days then 200 mg QD
Experimental: In some embodiments, the therapeutically effective amount is determined by measuring the percent of hemoglobin occupied by the compound, i.e., the percent Hb occupancy. The percent Hb occupancy is a measure of target engagement defined as the percentage of hemoglobin bound by a compound (e.g., Compound I) calculated as the molar concentration of the compound (e.g., Compound I) in RBCs divided by the molar concentration of hemoglobin in RBCs (the mean corpuscular hemoglobin concentration calculated from the hematology panel). The values for concentration of a compound (e.g., Compound I) in RBCs is calculated from the concentrations in whole blood and plasma, and the hematocrit.
In some embodiments, the percent hemoglobin occupancy may be calculated as described herein. In some embodiments, percent hemoglobin occupancy is the molar ratio of Compound I concentration to the Hb concentration in red blood cells.
Some newly enrolled participants in Part A will receive a loading dose regimen of 300 mg of Compound I once daily over the first 14 days. Participants will then receive 200 mg once daily maintenance doses through Week 12.
Based on preliminary pharmacokinetic (PK) analysis of whole blood samples taken from Patient A at day 15 and day 29, Hb occupancy values of 62% and 53%, respectively, were calculated.

T1 sequence (P69905 whole entry): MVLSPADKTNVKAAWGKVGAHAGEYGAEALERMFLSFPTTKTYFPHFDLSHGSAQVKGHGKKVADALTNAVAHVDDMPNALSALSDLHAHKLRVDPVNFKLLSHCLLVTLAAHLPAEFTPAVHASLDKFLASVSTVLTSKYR
T1 sequence (P68871 with tags, fused parts or gaps E7V partner): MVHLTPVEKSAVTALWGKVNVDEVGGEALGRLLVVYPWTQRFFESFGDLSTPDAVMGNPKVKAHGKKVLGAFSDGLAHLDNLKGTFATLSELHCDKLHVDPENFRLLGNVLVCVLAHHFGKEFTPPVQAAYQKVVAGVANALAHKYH

- Hb occupancy (day 15, whole blood, 21600 min): 62%
- Hb occupancy (day 29, whole blood, 41760 min): 53%
SMILES: O=Cc1c(O)cccc1OC[C@@H]1COCCN1C(=O)c1cccnc1CCO [Compound I, (S)-2-hydroxy-6-((4-(2-(2-hydroxyethyl)nicotinoyl)morpholin-3-yl)methoxy)benzaldehyde]
